PMC9138991, “Effect of Trimethine Cyanine Dye- and Folate-Conjugation on the In Vitro Biological Activity of Proapoptotic Peptides” (Biomolecules, 2022)
Where a SMILES comes first, the peptide text is derived from it. Side-chain parts run from the residue outwards. [ ]: non-standard residue; d: D form. The star is where a group is joined. Pteroyl = Nc1nc2ncc(CNc3ccc(C(=O)*)cc3)nc2c(=O)[nH]1; Cha = N[C@@H](CC1CCCCC1)C(=O)O; dCha = N[C@H](CC1CCCCC1)C(=O)O

Key:
Type in all cases: cell-based, human
SK-OV-3 cells = assay: Cell viability assay (CellTiter-Blue), SK-OV-3 cells; details: 2 × 10^4 cells per well, medium + 10% FBS, 1% DMSO, 24 h at 37 °C, then CellTiter-Blue 4 h, three biological replicates fitted in Origin, standard error in brackets
Experimental: (§1) KB and MCF7 cells were kindly gifted by Prof. Arwyn T. Jones (Cardiff University), HEK293 cells were purchased from Public Health England, and SK-OV-3 cells were purchased from National Collection of Authenticated Cell Cultures (https://cell-bank.org.cn/). Cells were routinely tested for mycoplasma infection. KB and SK-OV-3 cells were maintained in T75 flasks at 37 °C in a 5% CO2 atmosphere in folic acid-depleted Roswell Park Memorial Institute (RPMI)-1640 medium supplemented with 10% (v/v) fetal bovine serum (FBS). MCF7 and HEK293 cells were maintained in T75 flasks at 37 °C in a 5% CO2 atmosphere in Dulbecco’s Modified Eagle’s medium (DMEM) supplemented with 10% (v/v) FBS. Cells were maintained at a sub-confluent monolayer and split at 80–85% confluency. For splitting, cells were washed with PBS, trypsinized in 1 mL of trypsin, and 200 µL of the 1000 µL trypsin cell suspension was re-suspended in 12 mL fresh DMEM containing 10% (v/v) FBS in a new T75 flask. KB and SK-OV-3 cells were used for biological experiments after being maintained for at least 10 days in folic acid-depleted RPMI-1640 medium.
(§2) SK-OV-3, MCF7, and HEK293 cells were seeded at a density of 2 × 10^4 cells per well in a Nunc™ MicroWell™ 96-well plate and grown at 37 °C in a 5% CO2 atmosphere in DMEM supplemented with 10% (v/v) FBS for 24 h. KB cells were seeded at a density of 7 × 10^3 cells per well in a 96-well plate and grown at 37 °C in a 5% CO2 atmosphere in folic acid-depleted RPMI-1640 medium supplemented with 10% (v/v) FBS for 24 h. Stock solutions of compounds 2–6 and 11–13 were obtained by dissolving the compounds in sterile deionized water. Compounds 1, and 7–10 were dissolved in pure DMSO. The stock solutions were diluted into the proper medium (according to the cell line tested) supplemented with 10% FBS to the appropriate concentration, and cells in each well were incubated with 100 µL of the solution. The solutions in each well were then adjusted to a concentration of 1% (v/v) DMSO. After 24 h at 37 °C, 20 µL of CellTiter-Blue™ was added to each well. The plate was incubated for another 4 h at 37 °C before analysis on a Perkin Elmer Victor X plate reader (excitation 531 nm; emission 595 nm). Each data point was calculated from a minimum of nine values resulting from three biological replicates (i.e., cells split from three different passages); each biological replicate is calculated from three technical replicates (i.e., cells split from the same passage). Value from media-only with CellTiter-Blue™ was set at 0% viability. This value was then subtracted from the values from cell-only (i.e., non-treated) wells with CellTiter-Blue™ in each biological replicate and set as 100% viability. For treatments of Cy3-containing compounds, blanks were generated with cell-free wells containing the compounds incubated for 24 h before addition of CellTiter-Blue™. The fluorescent reading for these wells was deducted from the treatment readings. Dose-response fitting curves were generated using Origin, version 2019b, OriginLab Corporation, Northampton, MA, USA (Figures S21–S24, Supplementary Materials).
(§3) Comparison of cytotoxicity fitting curves was achieved by applying the extra sum-of-squares F test, performed using GraphPad Prism version 9 for Windows, GraphPad Software, La Jolla, California, USA (https://www.graphpad.com/). […] Statistical analysis on the flow cytometry data was achieved by applying the unpaired two-tailed t-test test, performed using GraphPad Prism version 9 for Windows, GraphPad Software, La Jolla California USA, USA (https://www.graphpad.com/).
(§4) Cytotoxicity of 1–13 was evaluated using the CellTiter-Blue assay on KB, MCF7, SK-OV-3, and HEK293 cells. KB cells are derived from human cervical cancer, while SK-OV-3 cells are derived from human ovarian cancer. […] This feature is of particular relevance in anticancer applications, as it can be exploited for selective targeting and delivery. […]

MCF7 cells = assay: Cell viability assay (CellTiter-Blue), MCF7 cells; details: for EC50: MCF7 cells, 2 × 10^4 cells per well, DMEM + 10% FBS, 1% DMSO, 24 h at 37 °C, then CellTiter-Blue 4 h, three biological replicates fitted in Origin, standard error in brackets
Experimental: as §1, §2, §3, §4

HEK293 cells = assay: Cell viability assay (CellTiter-Blue), HEK293 cells; details: 2 × 10^4 cells per well, DMEM + 10% FBS, 1% DMSO, 24 h at 37 °C, then CellTiter-Blue 4 h, three biological replicates fitted in Origin, standard error in brackets
Experimental: as §1, §2, §3, §4

KB cells = assay: Cell viability assay (CellTiter-Blue), KB cells; details: 7 × 10^3 cells per well, folic acid-depleted RPMI-1640 + 10% FBS, 1% DMSO, 24 h at 37 °C, then CellTiter-Blue 4 h, three biological replicates fitted in Origin, standard error in brackets
Experimental: as §1, §2, §3, §4

[1] = system: KB, MCF7, SK-OV-3, and HEK293 cells; assay: Cell viability assay (CellTiter-Blue), statements over all tested cell lines; details: for Potency (cytotoxicity) in the tested cell lines, in words: extra sum-of-squares F test
Experimental: as §2, §3
Cytotoxicity of 1–13 was evaluated using the CellTiter-Blue assay on KB, MCF7, SK-OV-3, and HEK293 cells. KB cells are derived from human cervical cancer, while SK-OV-3 cells are derived from human ovarian cancer. […] This feature is of particular relevance in anticancer applications, as it can be exploited for selective targeting and delivery. MCF7 is a cell line derived from human breast cancer with low levels of folate receptor α [27]. Therefore, it can serve as the negative control for folate receptor α mediated tumor-targeted drug delivery systems. HEK293 is a non-cancer cell line and was chosen to evaluate the specificity of the tested compounds toward cancer cells.

[2] = KB, SK-OV-3, MCF7 and HEK293 cells, CellTiter-Blue

| SMILES | EC50 (SK-OV-3 cells) [µM] | EC50 (MCF7 cells) [µM] | EC50 (HEK293 cells) [µM] | EC50 (KB cells) [µM] | EC50 ([1]; KB, SK-OV-3, MCF7 and HEK293 cells, CellTiter-Blue, 24 h) [µM] | Potency (cytotoxicity) in the tested cell lines, in words [1, 2] | EC50 in MCF7 cells, times higher than in the other tested cell lines (MCF7 cells; MCF7 versus KB, SK-OV-3 and HEK293) | Selectivity of cytotoxicity between cell lines, in words ([1]; folate receptor α-high KB and SK-OV-3 versus MCF7 and HEK293) |
| --- | --- | --- | --- | --- | --- | --- | --- | --- |
| CC(C)C[C@H](NC(=O)[C@H](CCCCN)NC(=O)[C@H](C)NC(=O)[C@H](CC(C)C)NC(=O)[C@H](CCCCN)NC(=O)[C@H](CCCCN)NC(=O)[C@H](C)NC(=O)[C@H](CC(C)C)NC(=O)[C@H](CCCCN)NC(=O)[C@H](C)NC(=O)[C@H](CC(C)C)NC(=O)[C@@H](N)CCCCN)C(=O)N[C@@H](C)C(=O)N[C@@H](CCCCN)C(N)=O [Compound 2, reference compound] | > 400 | > 400 | > 400 | > 400 | > 300 | least potent amongst the tested compounds |  |  |
| C[C@@H](NC(=O)[C@H](CC1CCCCC1)NC(=O)[C@@H](CCCCN)NC(=O)[C@@H](C)NC(=O)[C@@H](CC1CCCCC1)NC(=O)[C@H](N)CCCCN)C(=O)N[C@H](CCCCN)C(=O)N[C@H](CCCCN)C(=O)N[C@@H](CC1CCCCC1)C(=O)N[C@H](C)C(=O)N[C@H](CCCCN)C(=O)N[C@H](CC1CCCCC1)C(=O)N[C@H](C)C(=O)N[C@H](CCCCN)C(N)=O [Compound 4, reference compound] (HELM PEPTIDE1{[dK].[O=C([C@@H](CC1CCCCC1)N[*:1])[*:2]].[dA].[dK].[Cha].[dA].[dK].[dK].[Cha].[dA].[dK].[O=C([C@@H](CC1CCCCC1)N[*:1])[*:2]].[dA].[dK].[am]}$$$$V2.0) | 11.6 | 50.9 | 15.6 | 6.5 |  | good potency in all tested cell lines | 3-8 times |  |
| CC(=O)N[C@@H](CCCCNC(=O)[C@H](CCC(=O)O)NC(=O)c1ccc(NCc2cnc3nc(N)nc(O)c3n2)cc1)C(=O)N[C@H](CCCCN)C(=O)N[C@H](CC1CCCCC1)C(=O)N[C@H](C)C(=O)N[C@H](CCCCN)C(=O)N[C@@H](CC1CCCCC1)C(=O)N[C@H](C)C(=O)N[C@H](CCCCN)C(=O)N[C@H](CCCCN)C(=O)N[C@@H](CC1CCCCC1)C(=O)N[C@H](C)C(=O)N[C@H](CCCCN)C(=O)N[C@H](CC1CCCCC1)C(=O)N[C@H](C)C(=O)N[C@H](CCCCN)C(N)=O [Compound 13] (Ac-K([Glu-Pteroyl])[dK][dCha][dA][dK][Cha][dA][dK][dK][Cha][dA][dK][dCha][dA][dK]-NH2) | 41.5 | 26.9 | 20.4 | 9.8 |  |  |  | significantly higher |
